Drawing on patent publication US8124775B2, “Chemical compound and its use” (Bayer Pharma Aktiengesellschaft, priority 2004, dated 2012), this text covers IC50 and inhibition for two compounds.

Molecules are shown by their SMILES. Where two headings read alike, the source gives them in different places.

Test [1] has as its target T1, CETP (Homo sapiens, UniProt P11597).
T1 sequence (P11597 18-493): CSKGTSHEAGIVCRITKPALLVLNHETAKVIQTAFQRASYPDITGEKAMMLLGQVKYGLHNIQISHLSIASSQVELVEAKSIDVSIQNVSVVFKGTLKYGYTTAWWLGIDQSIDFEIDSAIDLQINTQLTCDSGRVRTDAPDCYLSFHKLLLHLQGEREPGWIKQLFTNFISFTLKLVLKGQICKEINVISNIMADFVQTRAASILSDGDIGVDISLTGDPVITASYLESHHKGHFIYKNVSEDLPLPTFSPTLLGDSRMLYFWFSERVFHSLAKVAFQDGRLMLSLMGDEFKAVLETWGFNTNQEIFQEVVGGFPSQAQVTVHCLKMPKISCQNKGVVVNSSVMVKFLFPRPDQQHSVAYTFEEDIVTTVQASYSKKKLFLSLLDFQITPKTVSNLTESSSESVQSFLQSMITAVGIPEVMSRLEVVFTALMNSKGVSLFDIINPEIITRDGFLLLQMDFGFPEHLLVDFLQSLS
The experiment in a line: CETP fluorescence test with enriched CETP. Format: biochemical. Also noted: tissue Sigma P9523; host or cells: human plasma. To be noted: section (b), Example 1 = formula (Ib); enriched CETP from human plasma, 37° C., 4 hours. The procedure: CETP is obtained in partially purified form from human plasma by differential centrifugation and column chromatography and used for the test. To this end, human plasma is adjusted to a density of 1.21 g per ml using NaBr and centrifuged at 4° C. at 50 000 rpm for 18 h. The bottom fraction (d>1.21 g/ml) is applied to a Sephadex® Phenyl-Sepharose 4B (Pharmacia) column, washed with 0.15 M NaCl/0.001 M tris-HCl pH 7.4 and then eluted with distilled water. The CETP-active fractions are pooled, dialysed against 50 mM sodium acetate pH 4.5 and applied to a CM-Sepharose® column (Pharmacia). The mixture is then eluted using a linear gradient (0-1 M NaCl). The pooled CETP fractions are dialysed against 10 mM tris/HCl pH 7.4 and then further purified by chromatography on a Mono Q® column (Pharmacia).
Measurement of the CETP-catalysed transfer of a fluorescent cholesterol ester between liposomes [modified according to the procedure of Bisgaier et al., J. Lipid Res. 34, 1625 (1993)]: […]
The change in the fluorescence at 485/535 nm is a measure of the CE transfer; the inhibition of the transfer in comparison to the control batch without substance is determined. […]

Test [2] addresses T1, CETP. The experiment in a line: CETP fluorescence test with human plasma. To be noted: section (b), Example 1 = formula (Ib), 37° C., 24 h. More on the design: tissue Sigma P9523; host or cells: human plasma. The format is biochemical. The procedure:
For the production of the donor liposomes, 1 mg of cholesteryl 4,4-difluoro-5,7-dimethyl-4-bora-3a,4a-diaza-s-indacene-3-dodecanoate (cholesteryl BODIPY® FL C12, Molecular Probes) is dissolved in 600 μl of dioxane with 5.35 mg of triolein and 6.67 mg of phosphatidylcholine with gentle warming in an ultrasonic bath and this solution is added very slowly with ultrasonication to 63 ml of 50 mM tris/HCl, 150 mM NaCl, 2 mM EDTA buffer pH 7.3 at room temperature. The suspension is then ultrasonicated under an N2 atmosphere for 30 minutes in the Branson ultrasonic bath at about 50 watts, the temperature being kept at about 20° C.
6 μl (12% v/v) of donor liposomes and 1 μl (2% v/v) of a solution of the substance to be investigated in DMSO are added to 42 μl (86% v/v) of human plasma (Sigma P9523), and the mixture is incubated at 37° C. for 24 h.
The change in the fluorescence at 510/520 nm (gap width 2.5 nm) is a measure of the CE transfer; the inhibition of the transfer in comparison to the control batch without substance is determined. […]

In test [3] the target is T1, CETP. The experiment in a line: Ex vivo activity on transgenic hCETP mice (serum CETP activity). Format: in vivo. More on the design: from tissue; host or cells: serum of transgenic hCETP mice (Dinchuk et al.). Particulars: mouse, po. The procedure:
10 μl of buffer and 2 μl of serum are added to 80 μl of test mix, and the mixture is incubated at 37° C. for 4 h.
The change in the fluorescence at 485/535 nm is a measure for the CE transfer; the inhibition of the transfer is comparison to the control batch without substance is determined.
To test for CETP-inhibitory activity, the substances are administered orally using a stomach tube to transgenic hCETP mice bred in-house [Dinchuk et al. BBA 1295-301 (1995)]. To this end, male animals are randomly assigned to groups having an equal number of animals, as a rule n=4, one day before the start of the experiment. Before administration of the substance, blood is taken from each mouse by puncture of the retro-orbital venous plexus for the determination of its basal CETP activity in the serum (T1). The test substance is then administered to the animals using the stomach tube. At specific times after administration of the test substance, blood is taken from the animals by puncture a second time (T2), in general 16 or 24 h after substance administration, but if appropriate this can also be carried out at another time.
In order to be able to assess the inhibitory activity of a substance, for each time, i.e. 16 or 24 hours, a corresponding control group is employed whose animals only receive the formulating agent without substance. In the control animals, the second blood sampling per animal is carried out as in the substance-treated animals in order to be able to determine the change in the CETP activity without inhibitor over the corresponding experimental time interval (16 or 24 h).
After termination of the clotting, the blood samples are centrifuged and the serum is removed by pipette. For the determination of the CETP activity, the cholesteryl ester transport over 4 h is determined. To this end, in general 2 μl of serum are employed in the test batch and the test is carried out as described under B-I.2.3.
The differences in the cholesteryl ester transport [pM CE/h (T2)−pM CE/h (T1)] are calculated for each animal and averaged in the groups. A substance which at one of the times reduces the cholesteryl ester transport by >20% is regarded as active.
The change in the fluorescence at 485/535 nm is a measure for the CE transfer; the inhibition of the transfer in comparison to the control batch without substance is determined.
To test for CETP-inhibitory activity, the substances are administered orally using a stomach tube to transgenic hCETP mice bred in-house [Dinchuk et al., BBA, 1295-1301 (1995)]. To this end, male animals are randomly assigned to groups having an equal number of animals, as a rule n=4, one day before the start of the experiment. […]

Test [4] addresses T1, CETP. The experiment in a line: CETP-SPA test. Format: biochemical. More on the design: are added to 42 μl (86% v/v) of human plasma (Sigma P9523); tissue Sigma P9523; host or cells: human plasma. To be noted: section (b), Example 1 = formula (Ib); 37° C., 18 h.
Method: 50 ml of fresh human EDTA plasma is adjusted to a density of 1.12 using NaBr and centrifuged at 4° C. in a Ty 65 rotor at 50 000 rpm for 18 h. The upper phase is used for the obtainment of cold LDL. […]
For testing of the CETP activity, the transfer of ^3H-cholesterol ester from human HD lipoproteins to biotinylated LD lipoproteins is measured. The reaction is ended by addition of streptavidin-SPA® beads (Amersham) and the transferred radioactivity is determined directly in a liquid scintillation counter. […]

As a reminder, the IC50 is the concentration at which inhibition is half-maximal. A low value points to higher potency.

For the compound `CC(C)c1nc2c(c(C3CCCC3)c1[C@@H](F)c1ccc(C(F)(F)F)cc1)[C@@H](O)CC(C)(C)C2` [Example 1], the IC50 at CETP [1] came to 25 nM; at CETP [2], 84 nM.

In the case of `CC1(C)Cc2nc(C3CCCC3)c([C@@H](F)c3ccc(C(F)(F)F)cc3)c(C3CCCCC3)c2[C@@H](O)C1` [Example 1], the inhibition at 3 mg/kg amounted to 50% on CETP [3] (section (a), Example 1 = formula (Ia), 16 h after administration, read-out: % inhibition at 3 mg/kg, 16 h); 24% at CETP [3] (section (a), Example 1 = formula (Ia), 24 h after administration, read-out: % inhibition at 3 mg/kg, 24 h); 49% on CETP [3] (section (b), Example 1 = formula (Ib), 16 h after administration, read-out: % inhibition at 3 mg/kg, 16 h); 39% on CETP [3] (section (b), Example 1 = formula (Ib), 24 h after administration, read-out: % inhibition at 3 mg/kg, 24 h). The same compound registered a concentration for half-maximal inhibition (IC50) against CETP [4] of 12 nM.
